Laboratory results from ChEMBL document CHEMBL1143097, “Allosteric inhibitors of Akt1 and Akt2: a naphthyridinone with efficacy in an A2780 tumor xenograft model” (Bioorg Med Chem Lett, 2008).
The source made the active and inactive calls. The rule behind the calls is not given here.

Key:
[1] = Inhibition of PKA
[2] = molecular target: T1, RAC-alpha serine/threonine-protein kinase (Homo sapiens, UniProt P31749); experiment: Inhibition of Akt1 by cell-based assay
[3] = molecular target: T2, RAC-beta serine/threonine-protein kinase (Homo sapiens, UniProt P31751); experiment: Inhibition of Akt2
T2 sequence (P31751 whole entry): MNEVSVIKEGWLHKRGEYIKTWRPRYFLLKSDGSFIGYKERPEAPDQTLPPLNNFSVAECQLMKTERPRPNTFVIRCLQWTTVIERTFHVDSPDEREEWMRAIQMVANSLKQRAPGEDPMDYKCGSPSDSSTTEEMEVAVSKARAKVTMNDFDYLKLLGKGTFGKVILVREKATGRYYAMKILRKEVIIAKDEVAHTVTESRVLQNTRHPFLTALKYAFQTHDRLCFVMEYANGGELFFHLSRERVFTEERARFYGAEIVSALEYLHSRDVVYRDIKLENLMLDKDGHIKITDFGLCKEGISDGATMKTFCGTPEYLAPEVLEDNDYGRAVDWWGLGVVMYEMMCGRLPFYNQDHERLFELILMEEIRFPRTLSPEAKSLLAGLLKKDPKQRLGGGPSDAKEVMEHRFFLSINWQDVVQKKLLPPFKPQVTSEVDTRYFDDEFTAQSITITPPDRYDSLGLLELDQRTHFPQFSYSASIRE

[4] = molecular target: T2, RAC-beta serine/threonine-protein kinase; experiment: Inhibition of Akt2 by cell-based assay
[5] = Inhibition of SGK
[6] = molecular target: T1, RAC-alpha serine/threonine-protein kinase; experiment: Inhibition of Akt1
[7] = Inhibition of PKC
[8] = Distribution coefficient, log D of the compound; assay type: physicochemical; conditions: octanol/water
[9] = molecular target: RAC-gamma serine/threonine-protein kinase (Homo sapiens, UniProt Q9Y243); experiment: Inhibition of Akt3
Sequence of RAC-gamma serine/threonine-protein kinase (Q9Y243 whole entry): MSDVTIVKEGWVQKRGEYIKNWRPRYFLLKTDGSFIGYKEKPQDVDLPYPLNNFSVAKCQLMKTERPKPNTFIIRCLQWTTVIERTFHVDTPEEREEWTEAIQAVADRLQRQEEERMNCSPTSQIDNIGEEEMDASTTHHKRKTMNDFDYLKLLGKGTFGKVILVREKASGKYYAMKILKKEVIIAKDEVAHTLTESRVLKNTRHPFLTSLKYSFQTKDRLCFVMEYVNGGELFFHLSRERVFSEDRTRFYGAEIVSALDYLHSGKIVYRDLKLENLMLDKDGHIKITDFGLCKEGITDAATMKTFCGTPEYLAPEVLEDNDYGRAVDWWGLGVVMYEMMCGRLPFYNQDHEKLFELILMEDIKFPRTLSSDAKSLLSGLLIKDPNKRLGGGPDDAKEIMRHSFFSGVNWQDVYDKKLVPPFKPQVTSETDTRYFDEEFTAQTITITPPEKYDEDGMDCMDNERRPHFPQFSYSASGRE

Mus musculus [10] = experiment: Inhibition of Akt1 in mouse lung at 50 mg/kg, ip administered three times a day after 10 hrs by IP kinase assay; assay type: functional; parameters: scale not given: the % may be the effect or the level left; conditions: route intraperitoneal
Mus musculus [11] = experiment: Inhibition of Akt2 in mouse lung at 50 mg/kg, ip administered three times a day after 16 hrs by IP kinase assay; assay type: functional; parameters: scale not given: the % may be the effect or the level left; conditions: route intraperitoneal
Mus musculus [12] = experiment: Inhibition of AKT2 in A2780 cells xenografted mouse tumor tissue at 50 mg/kg, twice daily after 2 hrs by IP kinase assay; assay type: functional; conditions: route intraperitoneal
Mus musculus [13] = experiment: Inhibition of Akt2 in mouse lung at 50 mg/kg, ip administered three times a day after 10 hrs by IP kinase assay; assay type: functional; parameters: scale not given: the % may be the effect or the level left; conditions: route intraperitoneal
[14] = Drug concentration in mouse blood at 50 mg/kg, ip administered three times a day after 16 hrs; assay type: ADME, organism-based; parameters: dose 50 mg/kg, route intraperitoneal; conditions: whole blood, read-out: Drug uptake
Mus musculus [15] = experiment: Inhibition of Akt2 in mouse lung at 50 mg/kg, ip administered three times a day after 24 hrs by IP kinase assay; assay type: functional; parameters: scale not given: the % may be the effect or the level left; conditions: route intraperitoneal
Mus musculus [16] = experiment: Inhibition of AKT1 in A2780 cells xenografted mouse tumor tissue at 50 mg/kg, twice daily after 2 hrs by IP kinase assay; assay type: functional; conditions: route intraperitoneal
Mus musculus [17] = experiment: Inhibition of Akt1 in mouse lung at 50 mg/kg, ip administered three times a day after 24 hrs by IP kinase assay; assay type: functional; parameters: scale not given: the % may be the effect or the level left; conditions: route intraperitoneal
[18] = Clearance in rat; assay type: ADME, organism-based; conditions: in vivo
Mus musculus [19] = experiment: Inhibition of Akt1 in mouse lung at 50 mg/kg, ip administered three times a day after 16 hrs by IP kinase assay; assay type: functional; parameters: scale not given: the % may be the effect or the level left; conditions: route intraperitoneal
Mus musculus [20] = experiment: Inhibition of AKT1 in A2780 cells xenografted mouse lung tissue at 50 mg/kg, twice daily after 2 hrs by IP kinase assay; assay type: functional; conditions: route intraperitoneal
Mus musculus [21] = experiment: Inhibition of AKT2 in A2780 cells xenografted mouse lung tissue at 50 mg/kg, twice daily after 2 hrs by IP kinase assay; assay type: functional; conditions: route intraperitoneal
A2780 = experiment: Antitumor activity in human A2780 cells xenografted mouse assessed as decrease in tumor weight at 50 mg/kg, sc administered three times a day twice a week for five cycles; assay type: functional, organism-based; parameters: dose 50 mg/kg
[22] = Drug concentration in mouse blood at 50 mg/kg, ip administered three times a day after 10 hrs; assay type: ADME, organism-based; parameters: dose 50 mg/kg, route intraperitoneal; conditions: whole blood, read-out: Drug uptake
[23] = Partition coefficient, log P of the compound; assay type: physicochemical; conditions: octanol/water
[24] = Half life in rat; assay type: ADME, organism-based; conditions: in vivo
[25] = molecular target: Voltage-gated inwardly rectifying potassium channel KCNH2 (Homo sapiens, UniProt Q12809); experiment: Inhibition of human ERG
Sequence of Voltage-gated inwardly rectifying potassium channel KCNH2 (Q12809 whole entry): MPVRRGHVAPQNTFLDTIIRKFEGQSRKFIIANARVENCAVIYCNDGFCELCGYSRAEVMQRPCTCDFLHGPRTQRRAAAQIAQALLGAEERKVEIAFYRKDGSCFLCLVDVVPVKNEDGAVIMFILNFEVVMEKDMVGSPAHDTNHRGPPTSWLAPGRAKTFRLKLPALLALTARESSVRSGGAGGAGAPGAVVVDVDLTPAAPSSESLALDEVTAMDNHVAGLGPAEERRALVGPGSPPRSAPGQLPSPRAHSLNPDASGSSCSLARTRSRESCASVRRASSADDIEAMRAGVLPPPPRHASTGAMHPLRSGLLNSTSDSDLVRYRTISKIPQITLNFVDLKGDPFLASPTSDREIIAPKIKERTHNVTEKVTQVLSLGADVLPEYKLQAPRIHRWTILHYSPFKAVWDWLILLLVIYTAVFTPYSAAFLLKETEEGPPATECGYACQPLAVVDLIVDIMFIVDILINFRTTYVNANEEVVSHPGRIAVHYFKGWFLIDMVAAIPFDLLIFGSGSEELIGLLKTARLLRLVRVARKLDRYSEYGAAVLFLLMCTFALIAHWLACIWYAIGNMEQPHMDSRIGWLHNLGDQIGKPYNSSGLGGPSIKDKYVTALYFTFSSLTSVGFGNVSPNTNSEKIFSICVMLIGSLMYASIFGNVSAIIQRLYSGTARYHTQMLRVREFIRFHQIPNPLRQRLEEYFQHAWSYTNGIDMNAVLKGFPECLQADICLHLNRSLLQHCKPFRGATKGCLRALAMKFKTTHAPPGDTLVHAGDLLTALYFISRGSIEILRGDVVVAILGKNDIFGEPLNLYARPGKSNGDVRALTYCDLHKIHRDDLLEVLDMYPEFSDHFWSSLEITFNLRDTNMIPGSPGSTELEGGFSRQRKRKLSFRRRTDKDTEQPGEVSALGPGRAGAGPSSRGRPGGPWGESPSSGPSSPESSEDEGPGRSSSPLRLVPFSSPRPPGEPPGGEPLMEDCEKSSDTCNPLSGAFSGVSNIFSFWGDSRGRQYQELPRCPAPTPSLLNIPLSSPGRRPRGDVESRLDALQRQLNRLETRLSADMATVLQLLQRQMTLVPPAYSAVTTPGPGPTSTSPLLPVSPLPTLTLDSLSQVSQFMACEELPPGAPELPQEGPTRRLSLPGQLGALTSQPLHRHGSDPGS

[26] = Drug concentration in mouse blood at 50 mg/kg, ip administered three times a day after 24 hrs; assay type: ADME, organism-based; parameters: dose 50 mg/kg, route intraperitoneal; conditions: whole blood, read-out: Drug uptake
Homo sapiens = species: Homo sapiens; experiment: Protein binding in human plasma; conditions: read-out: PB (converted)

T1 sequence (P31749 whole entry): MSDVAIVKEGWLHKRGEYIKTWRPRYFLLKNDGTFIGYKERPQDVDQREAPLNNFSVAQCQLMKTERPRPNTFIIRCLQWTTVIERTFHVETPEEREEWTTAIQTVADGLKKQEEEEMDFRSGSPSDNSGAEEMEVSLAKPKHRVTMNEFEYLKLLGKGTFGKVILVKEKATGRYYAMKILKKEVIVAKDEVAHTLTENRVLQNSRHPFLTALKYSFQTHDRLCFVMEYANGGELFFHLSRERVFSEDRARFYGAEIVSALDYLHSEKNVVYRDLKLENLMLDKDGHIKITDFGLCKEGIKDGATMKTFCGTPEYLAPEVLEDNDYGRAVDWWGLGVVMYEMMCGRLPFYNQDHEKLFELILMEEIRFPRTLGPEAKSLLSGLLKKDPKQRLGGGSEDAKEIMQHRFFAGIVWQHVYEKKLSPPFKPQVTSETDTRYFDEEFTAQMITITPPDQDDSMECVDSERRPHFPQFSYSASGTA

| Compound | IC50 [1] | IC50 [2] | IC50 [3] | IC50 [4] | IC50 [5] | IC50 [6] | IC50 [7] | other results |
| --- | --- | --- | --- | --- | --- | --- | --- | --- |
| c1ccc(-c2cc3cnccc3nc2-c2ccc(CN3CCC(c4n[nH]c(-c5ccccn5)n4)CC3)cc2)cc1 | > 50000 nM | 21 nM | 210 nM | 2680 nM | > 50000 nM | 7.4 nM | > 50000 nM | – |
| c1ccc(-c2cc3cccnc3nc2-c2ccc(CN3CCC(c4cc(-c5ccccn5)[nH]n4)CC3)cc2)cc1 | > 50000 nM | 149 nM | 280 nM | 995 nM | > 50000 nM | 44 nM | > 50000 nM | – |
| c1ccc(-c2cc3cccnc3nc2-c2ccc(CN3CCC(c4n[nH]c(-c5ccccn5)n4)CC3)cc2)cc1 | > 50000 nM | 83 nM | 220 nM | 1080 nM | > 50000 nM | 45 nM | > 50000 nM | – |
| c1ccc(-c2cc(C3CCN(Cc4ccc(-c5nc6ncccc6cc5-c5ccccc5)cc4)CC3)n[nH]2)cc1 | > 50000 nM | – | 1600 nM | – | > 50000 nM | 470 nM | > 50000 nM | – |
| CCN(CC)CCNC(=O)c1ccc2nc(-c3ccccc3)c(-c3ccc(CN4CCC(n5c(=O)[nH]c6ccccc65)CC4)cc3)nc2c1 | – | 527 nM | – | 730 nM | – | – | – | – |
| c1ccc(-c2cc3cccnc3nc2-c2ccc(CN3CCC(c4cc(-c5cccnc5)[nH]n4)CC3)cc2)cc1 | > 50000 nM | – | 900 nM | – | > 50000 nM | 250 nM | > 50000 nM | – |
| c1ccc(-c2nc3ccccc3nc2-c2ccc(CN3CCC(c4cc(-c5ccncc5)[nH]n4)CC3)cc2)cc1 | – | – | 1080 nM | – | – | 75 nM | – | logD [8]: 2.71; IC50 [9]: 11300 nM |
| c1ccc(-c2cc3cccnc3nc2-c2ccc(CN3CCC(c4cc(-c5ccncc5)[nH]n4)CC3)cc2)cc1 | > 50000 nM | 369 nM | 260 nM | 1450 nM | > 50000 nM | 120 nM | > 50000 nM | – |

Second part, led by results:

| IC50 [1] | IC50 [2] | IC50 [3] | IC50 [4] | IC50 [5] | IC50 [6] | IC50 [7] | Compound | other results |
| --- | --- | --- | --- | --- | --- | --- | --- | --- |
| > 50000 nM | 30 nM | 70 nM | 1480 nM | > 50000 nM | 5.6 nM | > 50000 nM | c1ccc(-c2cc3ncccc3nc2-c2ccc(CN3CCC(c4n[nH]c(-c5ccccn5)n4)CC3)cc2)cc1 | – |
| > 50000 nM | 132 nM | 83 nM | 613 nM | > 50000 nM | 34 nM | > 50000 nM | O=c1ccc(-c2cc(C3CCN(Cc4ccc(-c5nc6ncccc6cc5-c5ccccc5)cc4)CC3)n[nH]2)c[nH]1 | – |
| > 50000 nM | 31 nM | 160 nM | 981 nM | > 50000 nM | 21 nM | > 50000 nM | c1ccc(-c2cc3ccncc3nc2-c2ccc(CN3CCC(c4n[nH]c(-c5ccccn5)n4)CC3)cc2)cc1 | – |
| > 50000 nM | 16 nM | 42 nM | 266 nM | > 50000 nM | 3.5 nM | > 50000 nM | O=C1N=CC=C2N=C(c3ccc(CN4CCC(c5n[nH]c(-c6ccccn6)n5)CC4)cc3)C(c3ccccc3)=CC12 (configuration not stated) | Activity (Mus musculus [10]): 21%; Activity (Mus musculus [11]): 86%; inhibition in vivo at 50 mg/kg (Mus musculus [12]): 54%; Activity (Mus musculus [13]): 41%; concentration at 16 h [14]: 2600 nM; Activity (Mus musculus [15]): 91%; inhibition in vivo at 50 mg/kg (Mus musculus [16]): 95%; Activity (Mus musculus [17]): 100%; clearance [18]: 4.6 mL/min/kg; Activity (Mus musculus [19]): 62%; inhibition in vivo at 50 mg/kg (Mus musculus [20]): 80%; inhibition in vivo at 50 mg/kg (Mus musculus [21]): 75%; Activity (A2780): Active; concentration at 10 h [22]: 13000 nM; logP [23]: 3.51; IC50 [9]: 1900 nM; half-life [24]: 3.8 h; IC50 [25]: 5610 nM; concentration at 24 h [26]: 700 nM; fraction unbound (Homo sapiens): 0.027 |
